{"source": "patent US12054494B2", "about": "“Compound with anticancer activity” (KYOWA KIRIN CO., LTD., priority 2018, dated 2024)", "key": {"[1]": {"test_system": "DLBCL strain SU-DHL-4 subcutaneously transplanted tumor", "assay": "Antitumor effect on subcutaneous transplant model in SCID mouse", "type": "in vivo", "settings": "3 mg/kg intravenously 5 times a week for 2 weeks; male SCID mouse; versus vehicle administration group", "experimental": "Antitumor Effect on Subcutaneous Transplant Model in SCID Mouse DLBCL Strain SU-DHL-4\n1×10^7 cells of DLBCL strain SU-DHL-4 (Code No. ACC 495, Deutsche Sammlung von Mikroorganismen and Zellkulturen GmbH) suspended in a 1:1 mixed solution of PBS and matrigel (CORNING Code No. 354234) were transplanted subcutaneously to the ventral side of a male SCID mouse. Eighteen days after the transplantation, the body weight and the tumor diameter were measured, the tumor volume was calculated by the following formula, and the mice were divided into two groups (n=5) so that the average tumor volume of each group was equal. E-workbook software (ID Business Solusions) was used for grouping and measurement. […]\nThe test was conducted in two groups, a vehicle administration group and a compound 1a administration group (compound administration group). […] After the start of the test, body weight and tumor diameter were measured twice a week. The tumor volume on each measurement day was calculated by the above formula. The tumor growth rate (hereinafter referred to as V/V0) was calculated by dividing the tumor volume V on each measurement day by the tumor volume V0 on the test start day (Day 0). The T/C was calculated by dividing the average value (T) of V/V0 of each group by the average value (C) of the vehicle administration group."}, "SU-DHL-4 cells": {"test_system": "SU-DHL-4 cells", "assay": "Inhibitory effect on cell viability (Cell Counting Kit-8)", "type": "cell-based", "settings": "Homo sapiens, 72 hours culture with test compound, concentration showing 90% inhibition rate of cell viability", "in_short": "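IC90 corresponds to 90% loss of viability, measured as CCK-8 absorbance at 450 nm (2-3 h colour development). Compounds in 9 dilutions (0.1% DMSO) were applied for 72 h at 37° C to SU-DHL-4 lymphoma cells seeded at 2000/well in RPMI1640/10% FBS after 18-25 h preculture.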"}, "[2]": {"assay": "Body weight in SU-DHL-4 subcutaneous transplant model", "type": "in vivo", "settings": "3 mg/kg intravenously 5 times a week for 2 weeks, male SCID mouse; for Body weight: mean of n=5", "experimental": "1×10^7 cells of DLBCL strain SU-DHL-4 (Code No. ACC 495, Deutsche Sammlung von Mikroorganismen and Zellkulturen GmbH) suspended in a 1:1 mixed solution of PBS and matrigel (CORNING Code No. 354234) were transplanted subcutaneously to the ventral side of a male SCID mouse. Eighteen days after the transplantation, the body weight and the tumor diameter were measured, the tumor volume was calculated by the following formula, and the mice were divided into two groups (n=5) so that the average tumor volume of each group was equal. E-workbook software (ID Business Solusions) was used for grouping and measurement. [Tumor volume (mm^3)]=[Tumor long diameter (mm)]×[Tumor short diameter (mm)]^2×0.5\nThe test was conducted in two groups, a vehicle administration group and a compound 1a administration group (compound administration group). To the compound 1a administration group, a solution of compound 1a dissolved in 30% DMSO/3% Tween 80/physiological saline so as to give a final concentration of 0.6 mg/mL was administered intravenously (tail vein) at 5 mL/kg (3 mg/kg) 5 times a week for 2 weeks. To the vehicle administration group, 30% DMSO/3% Tween 80/physiological saline was administered intravenously (tail vein) at 5 mL/kg on the same schedule as the compound 1a administration group. After the start of the test, body weight and tumor diameter were measured twice a week. The tumor volume on each measurement day was calculated by the above formula. The tumor growth rate (hereinafter referred to as V/V0) was calculated by dividing the tumor volume V on each measurement day by the tumor volume V0 on the test start day (Day 0). The T/C was calculated by dividing the average value (T) of V/V0 of each group by the average value (C) of the vehicle administration group."}, "[3]": {"test_system": "MYC mRNA expression in SU-DHL-4 cells", "assay": "Suppressive effect on MYC mRNA expression (qRT-PCR)", "type": "cell-based", "settings": "test compound 100 nmol/L, 6 hours", "experimental": "Suppressive Effect on MYC mRNA Expression\nSU-DHL-4 cells were cultured at 37° C. using a carbon dioxide gas incubator (95% air, 5% CO2) in RPMI1640 medium in which FBS in an amount to give a final concentration of 10 vol % and PS in an amount to give a final concentration of 1 vol % were added. The cells were passaged twice a week at a volume of 20-40 mL so as to maintain a cell concentration of 1×10^6 cells/mL or less.\nThe cultured SU-DHL-4 cells were seeded at 6×10^5 cells/well in a transparent 6-well plate (Code No. 140675, Thermo Fisher Scientific). After seeding, the cells were precultured at 37° C. in a carbon dioxide gas incubator for 18 to 25 hours. Next, a 0.1 mmol/L DMSO solution of the test compound was prepared, diluted so that the concentration will be 200 times the final concentration in the RPMI1640 medium containing the above FBS and PS, and 1/200 volume of the diluted solution was added to each well. At this time, the final concentration of DMSO was adjusted to be 0.1 vol %. After adding the test compound, the cells were cultured at 37° C. in a carbon dioxide gas incubator for 6 hours.\nThen, the cells were collected by centrifugation and used for extraction of mRNA. mRNA extraction from cells was performed using Maxwell® 16 LEV simplyRNA Purification Kits (Code No. AS1270, Promega). The mRNA recovery protocol was performed according to the manufacturer's recommended protocol attached to the kit.\n0.001 mg of the recovered mRNA was converted to cDNA by SuperScript IV VILO Master Mix with ezDNase Enzyme (Code No. 11766050, Thermo Fisher Scientific). The cDNA conversion was performed, according to the manufacturer's recommended protocol attached to the kit, in 0.020 mL of the reaction solution, and GeneAmp® PCR System 9700 (Applied Biosystems) was used. The cDNA-converted sample was diluted 10-fold by adding 0.180 mL of RNase Free Water (Code No. 10977-023, Thermo Fisher Scientific) and used for quantitative real-time polymerase chain reaction (qRT-PCR). For the calibration curve of qRT-PCR, 0.08 mL of RNase Free Water was added to a cDNA sample using DMSO as a test compound for 5-fold dilution. Further, two 5-fold dilutions were prepared stepwise, and these three samples were used as the calibration curve samples.\nThe following reagents were used for qRT-PCR: TaqMan Gene Expression Assays, Inventoried (Primer probe: Code No. 4331182, Thermo Fisher Scientific, Assay ID: (i) MYC: Hs00153408_m1, (ii) ACTB: Hs01060665_g1, (iii) GAPDH: Hs04420697_g1, (iv) HPRT1: Hs02800695_m1); 2X TaqManR Fast Universal PCR Master Mix, no AmpEraseR UNG (Master Mix: Code No. 4367846, Thermo Fisher Scientific).\nPrimer probe (0.001 mL), Master Mix (0.010 mL), water (0.004 mL) and the diluted cDNA sample (0.005 mL) were mixed, and qRT-PCR analysis was performed. For qRT-PCR analysis, QuantStudio 7 Flex (Thermo Fisher Scientific) or 7500 Fast Real-Time PCR (Applied Biosystems) was used to measure in Fast mode and analyze. The expression level of the MYC gene was determined by quantifying ACTB, GAPDH, and HPRT1 as housekeeping genes and correcting by the following formula to calculate the suppression rate of (%) of MYC mRNA expression when the test compound was allowed to act at a concentration of 100 nmol/L. Corrected MYC expression=A/B • A: MYC expression level • B: Geometric mean of expression levels of ACTB, GAPDH and HPRT1\nUsing the corrected values, the suppression rate of MYC expression for the wells to which […] was calculated by the following formula. Suppression rate of MYC expression (%)=100−C/D×100 • C: Corrected MYC expression level in a well containing test compound • D: Corrected MYC expression level in a well to which test compound was not added"}}}
{"smiles": "CCC(=O)N1c2ccccc2[C@H](Nc2ccc(C(=O)NCCCNC(=O)c3ccc(N[C@@H]4C[C@H](C)N(C(=O)CC)c5ccccc54)cc3)cc2)C[C@@H]1C", "note": "(single isomer, unassigned) [Compound 1a, N,N′-(Propane-1,3-diyl)bis(4-{[(2S*,4R*)-2-methyl-1-propionyl-1,2,3,4-tetrahydroquinolin-4-yl]amino}benzamide)]", "values": [{"measurement": "Antitumor effect on SU-DHL-4 subcutaneously transplanted tumor (in words)", "setting": "[1]", "value": "strong antitumor effect"}, {"measurement": "IC90", "setting": "SU-DHL-4 cells", "value": 5.21, "unit": "nM"}, {"measurement": "Weight loss (in words)", "setting": "[2]", "value": "no weight loss was observed"}, {"measurement": "Body weight", "setting": "[2]; Day 0", "value": 24.56, "unit": "g"}, {"measurement": "Body weight", "setting": "[2]; Day 3", "value": 25.36, "unit": "g"}, {"measurement": "Body weight", "setting": "[2]; Day 7", "value": 25.44, "unit": "g"}, {"measurement": "Body weight", "setting": "[2]; Day 10", "value": 25.14, "unit": "g"}, {"measurement": "Body weight", "setting": "[2]; Day 14", "value": 25.74, "unit": "g"}, {"measurement": "Body weight", "setting": "[2]; Day 18", "value": 26.23, "unit": "g"}]}
{"smiles": "CCC(=O)N1c2ccccc2[C@H](Nc2ccc(NC(=O)CCCC(=O)NC3CCC(N[C@@H]4C[C@H](C)N(C(=O)CC)c5ccccc54)CC3)cc2)C[C@@H]1C", "note": "(stereo partly drawn) [Compound 7o, N^1-((1R,4r)-4-(((2S,4R)-2-Methyl-1-propionyl-1,2,3,4-tetrahydroquinolin-4-yl)amino)cyclohexyl)-N^5-(4-(((2S,4R)-2-methyl-1-propionyl-1,2,3,4-tetrahydroquinolin-4-yl)amino)phenyl)glutaramide]", "values": [{"measurement": "Suppression rate of MYC mRNA expression", "setting": "[3]", "value": 97.4, "unit": "%"}]}
{"smiles": "CCC(=O)N1c2ccccc2[C@H](NCCCCC(=O)NCc2cn(-c3ccc(N[C@@H]4C[C@H](C)N(C(=O)CC)c5ccccc54)cc3)nn2)C[C@@H]1C", "note": "(relative stereo) [Compound 12f, 5-(((2S*,4R*)-2-Methyl-1-propionyl-1,2,3,4-tetrahydroquinolin-4-yl)amino)-N-((1-(4-(((2S,4R)-2-methyl-1-propionyl-1,2,3,4-tetrahydroquinolin-4-yl)amino)phenyl)-1H-1,2,3-triazol-4-yl)methyl)pentane amide]", "values": [{"measurement": "Suppression rate of MYC mRNA expression", "setting": "[3]", "value": 97.9, "unit": "%"}]}
